From patent US11185100B2 (priority 2014, dated 2021)
Like-named read-outs stand apart in the source and are kept apart here.

Biological target: T1R1/T1R3 receptor (Felis catus, UniProt E3UMS2)
Assay: Activation of T1R1/T1R3 receptor by transmembrane compounds alone or with alanine, IMP, GMP, phenylalanine; HEK293 cells, calcium fluorescence (Example 5)
Format: cell-based, cat
Conditions: for Max resp % of IMP +Alanine (20 mM): relative to IMP; for Thres +Alanine (20 mM) / Thres +IMP (0.2 mM): threshold concentration; for Max resp % of Ala +IMP (0.2 mM): relative to Ala; for Activity: Table 18, all transmembrane compounds tested, active / N/A (not active)
Text: Methods: HEK293 cells that stably express T1R3 and inducibly express T1R1 were exposed to transmembrane compounds alone or in combination with one or more amino acids and/or one or more nucleotides to activate the umami receptor. Activation of the T1R1/T1R3 receptor was detected by a change in intracellular calcium levels using a calcium sensitive fluorescent dye. Cells that express T1R3 but not T1R1 were used as a control. A FLIPR® Tetra or a FlexStation® 3 was used for data capture.
In each experiment, serial dilutions of up to 10 mM of the transmembrane compound were added to the T1R1/T1R3-expressing cells.

## CCCC(C)NC(=O)c1ccc(OC)c(C)c1 (stereo not shown) [4-methoxy-3-methyl-N-(pentan-2-yl)benzamide]
+Alanine (20 mM)
  +Alanine (20 mM) Max resp % of IMP: 126.0 % of IMP
  +Alanine (20 mM) Max resp ΔF/F: 1.5650 ΔF/F
  +Alanine (20 mM) Thres: 0.050 mM
  Max resp % of IMP +Alanine (20 mM): 126.0%
  Thres +Alanine (20 mM): 0.050 mM
  +IMP (0.2 mM) Max resp % of Ala: 128.9 % of Ala
  Max resp ΔF/F +IMP (0.2 mM): 1.5875 ΔF/F
  Max resp % of Ala +IMP (0.2 mM): 128.9%
  Thres +IMP (0.2 mM): 0.025 mM
  Activity: active

## CCOC(=O)C(NC(=O)c1ccc2c(c1)OCO2)C(C)C (stereo not shown) [ethyl 2-(benzo[d][1,3]dioxole-5-carboxamido)-3-methylbutanoate]
+Alanine (20 mM)
  +Alanine (20 mM) Max resp % of IMP: 25.6 % of IMP
  +Alanine (20 mM) Max resp ΔF/F: 0.3175 ΔF/F
  +Alanine (20 mM) Thres: 10 mM
  Max resp % of IMP +Alanine (20 mM): 25.6%
  Thres +Alanine (20 mM): 10 mM
  +IMP (0.2 mM) Max resp % of Ala: 52.8 % of Ala
  Max resp ΔF/F +IMP (0.2 mM): 0.65 ΔF/F
  Max resp % of Ala +IMP (0.2 mM): 52.8%
  Thres +IMP (0.2 mM): 1 mM
  Activity: active

## CCCC(CCC)C(=O)Nc1ccc2c(c1)OCO2 [N-(benzo[d][1,3]dioxol-5-yl)-2-propylpentanamide]
  +IMP (0.2 mM) Max resp % of Ala: 108.0 % of Ala
  Max resp ΔF/F +IMP (0.2 mM): 0.908 ΔF/F
  Max resp % of Ala +IMP (0.2 mM): 108.0%
  Thres +IMP (0.2 mM): 0.0675 mM
  Activity: active
Compound alone
  activation of T1R1/T1R3 by the transmembrane compound alone (in words): function as an agonist

## CCC(CC)NC(=O)c1ccc(C)c(C)c1 [3,4-dimethyl-N-(pentan-3-yl)benzamide; N-(1-ethylpropyl)-3,4-dimethylbenzamide]
+Alanine (20 mM)
  +Alanine (20 mM) Max resp % of IMP: 97.8 % of IMP
  +Alanine (20 mM) Max resp ΔF/F: 1.2150 ΔF/F
  +Alanine (20 mM) Thres: 3 mM
  +IMP (0.2 mM) Max resp % of Ala: 125.7 % of Ala

## CCCC(C)NC(=O)/C=C/c1ccc(OC)c(OC)c1 (stereo not shown) [(E)-3-(3,4-dimethoxyphenyl)-N-(pentan-2-yl)acrylamide]
+Alanine (20 mM)
  Max resp % of IMP +Alanine (20 mM): 35.2%
  Thres +Alanine (20 mM): 1 mM
  Max resp ΔF/F +IMP (0.2 mM): 1.07 ΔF/F
  Max resp % of Ala +IMP (0.2 mM): 86.9%
  Thres +IMP (0.2 mM): 0.55 mM
  Activity: active

## O=C(CN1C(=O)C(=O)N(Cc2ccccc2)C1=O)c1ccccc1 [1-benzyl-3-(2-oxo-2-phenylethyl)imidazolidine-2,4,5-trione]
+Alanine (20 mM)
  +Alanine (20 mM) Max resp % of IMP: 127.6 % of IMP
  +Alanine (20 mM) Max resp ΔF/F: 1.3 ΔF/F
  +Alanine (20 mM) Thres: 1 mM
  Max resp % of IMP +Alanine (20 mM): 127.6%
  Thres +Alanine (20 mM): 1 mM
  +IMP (0.2 mM) Max resp % of Ala: 135.7 % of Ala
  Max resp ΔF/F +IMP (0.2 mM): 1.140 ΔF/F
  Max resp % of Ala +IMP (0.2 mM): 135.7%
  Thres +IMP (0.2 mM): 0.08 mM
  Activity: active
Compound alone in buffer, read-out: EC50 +buffer (alone)
  EC50: > 1000 µM
read-out: +Alanine (20 mM) + IMP (0.2 mM) EC50, +Alanine (20 mM) + IMP (0.2 mM)
  EC50: 330 ± 40 µM
read-out: EC50 +Alanine (20 mM) + IMP (0.2 mM), +Alanine (20 mM) + IMP (0.2 mM)
  EC50: 330 µM
read-out: EC50 +Alanine (20 mM), +Alanine (20 mM)
  EC50: > 1000 µM

## CSc1ccc(-c2nnn(Cc3ccccn3)n2)cc1 [2-((5-(4-(methylthio)phenyl)-2H-tetrazol-2-yl)methyl)pyridine]
  +IMP (0.2 mM) Max resp % of Ala: 80.7 % of Ala
  Max resp ΔF/F +IMP (0.2 mM): 0.678 ΔF/F
  Max resp % of Ala +IMP (0.2 mM): 80.7%
  Thres +IMP (0.2 mM): 0.1575 mM
  Activity: active

## COc1ccc(/C=C/C(=O)NC2CCCCC2C)cc1 (stereo not shown) [(E)-3-(4-methoxyphenyl)-N-(2-methylcyclohexyl) acrylamide]
+Alanine (20 mM)
  +Alanine (20 mM) Max resp % of IMP: 63.2 % of IMP
  +Alanine (20 mM) Max resp ΔF/F: 0.785 ΔF/F
  +Alanine (20 mM) Thres: 3 mM
  Max resp % of IMP +Alanine (20 mM): 63.2%
  Thres +Alanine (20 mM): 3 mM
  +IMP (0.2 mM) Max resp % of Ala: 144.0 % of Ala
  Max resp ΔF/F +IMP (0.2 mM): 1.7725 ΔF/F
  Max resp % of Ala +IMP (0.2 mM): 144.0%
  Thres +IMP (0.2 mM): 0.3 mM
  Activity: active

## CCC(CC)NC(=O)c1ccc(Br)o1 [5-bromo-N-(pentan-3-yl)furan-2-carboxamide]
+Alanine (20 mM)
  +Alanine (20 mM) Max resp % of IMP: 126.8 % of IMP
  +Alanine (20 mM) Max resp ΔF/F: 1.575 ΔF/F
  +Alanine (20 mM) Thres: 1 mM
  Max resp % of IMP +Alanine (20 mM): 126.8%
  Thres +Alanine (20 mM): 1 mM
  +IMP (0.2 mM) Max resp % of Ala: 149.6 % of Ala
  Max resp ΔF/F +IMP (0.2 mM): 1.8425 ΔF/F
  Max resp % of Ala +IMP (0.2 mM): 149.6%
  Thres +IMP (0.2 mM): 0.3 mM
  Activity: active

## COC(=O)C(NC(=O)/C=C/c1cccs1)C(C)C (stereo not shown) [(E)-methyl 3-methyl-2-(3-(thiophen-2-yl)acrylamido)butanoate]
+Alanine (20 mM)
  +Alanine (20 mM) Max resp % of IMP: 9.5 % of IMP
  +Alanine (20 mM) Max resp ΔF/F: 0.1175 ΔF/F
  +Alanine (20 mM) Thres: 10 mM
  Max resp % of IMP +Alanine (20 mM): 9.5%
  Thres +Alanine (20 mM): 10 mM
  +IMP (0.2 mM) Max resp % of Ala: 59.9 % of Ala
  Max resp ΔF/F +IMP (0.2 mM): 0.7375 ΔF/F
  Max resp % of Ala +IMP (0.2 mM): 59.9%
  Thres +IMP (0.2 mM): 1 mM
  Activity: active
